Reference: PubChem BioAssay AID1919010 (Molecular Pharmacology Branch, DTP, NCI, 2023)

Tested on: Hs578T complex spheroid growth, percent test/control
Assay: Anticancer human tumor Hs578T cell line growth inhibition [AhR];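 further: luminescent viability signal as a proxy for spheroid growth; spheroids exposed to agents for one week after three days of growth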
Details: for IC50: curve of first compound; for viability, T/C: stronger effect = lower value
How it was run: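 Spheroids combined tumor cells with HUVEC endothelial cells and human MSCs as stroma. AhR antagonists were paired with standard or investigational drugs, each dosed in half-log steps down from near clinical Cmax, or from 10 microM where Cmax was unknown.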

[1] = second compound 0.1 µM, first compound 0.00949 µM
[2] = second compound 0.1 µM, first compound 0.03 µM
[3] = second compound 0.1 µM, first compound 0.0949 µM
[4] = second compound 0.1 µM, first compound 0.3 µM
[5] = second compound 0.316 µM, first compound 0.00949 µM
[6] = second compound 0.316 µM, first compound 0.03 µM
[7] = second compound 0.316 µM, first compound 0.0949 µM
[8] = second compound 0.316 µM, first compound 0.3 µM
[9] = second compound 1 µM, first compound 0.00949 µM
[10] = second compound 1 µM, first compound 0.03 µM
[11] = second compound 1 µM, first compound 0.0949 µM
[12] = second compound 1 µM, first compound 0.3 µM
[13] = second compound 3.16 µM, first compound 0.00949 µM
[14] = second compound 3.16 µM, first compound 0.03 µM
[15] = second compound 3.16 µM, first compound 0.0949 µM
[16] = second compound 3.16 µM, first compound 0.3 µM
[17] = second compound 10 µM, first compound 0.00949 µM
[18] = second compound 10 µM, first compound 0.03 µM
[19] = second compound 10 µM, first compound 0.0949 µM
[20] = second compound 10 µM, first compound 0.3 µM

SMILES | IC50 (second compound 0.1 µM) [nM] | IC50 (second compound 0.316 µM) [nM] | IC50 (second compound 1 µM) [nM] | IC50 (second compound 3.16 µM) [nM] | IC50 (second compound 10 µM) [nM] | viability, T/C [1] [%] | viability, T/C [2] [%] | viability, T/C [3] [%] | viability, T/C [4] [%] | viability, T/C [5] [%] | viability, T/C [6] [%] | viability, T/C [7] [%] | viability, T/C [8] [%] | viability, T/C [9] [%] | viability, T/C [10] [%] | viability, T/C [11] [%] | viability, T/C [12] [%] | viability, T/C [13] [%] | viability, T/C [14] [%] | viability, T/C [15] [%] | other results
CCN(c1cc(-c2ccc(CN3CCOCC3)cc2)cc(C(=O)NCc2c(C)cc(C)[nH]c2=O)c1C)C1CCOCC1 + CC(CO)NC(=O)c1cc(-c2ccc(Cl)cc2)nn(-c2cnn(C)c2)c1=O | > 3000 | > 3000 | > 3000 | > 3000 | > 3000 | 116 | 112 | 112 | 102 | 114 | 112 | 122 | 109 | 113 | 121 | 120 | 107 | 107 | 113 | 115 | viability, T/C (second compound 0.1 µM, first compound 0.949 µM): 104%; viability, T/C (second compound 0.1 µM, first compound 3 µM): 112%; viability, T/C (second compound 0.316 µM, first compound 0.949 µM): 114%; viability, T/C (second compound 0.316 µM, first compound 3 µM): 98.4%; viability, T/C (second compound 1 µM, first compound 0.949 µM): 111%; viability, T/C (second compound 1 µM, first compound 3 µM): 113%; viability, T/C [16]: 111%; viability, T/C (second compound 3.16 µM, first compound 0.949 µM): 104%; viability, T/C (second compound 3.16 µM, first compound 3 µM): 106%; viability, T/C [17]: 107%; viability, T/C [18]: 104%; viability, T/C [19]: 107%; viability, T/C [20]: 92.3%; viability, T/C (second compound 10 µM, first compound 0.949 µM): 101%; viability, T/C (second compound 10 µM, first compound 3 µM): 106%
Nc1ncn(C2CC(O)C(CO)S2)c(=O)n1 (stereo not given) + CC(CO)NC(=O)c1cc(-c2ccc(Cl)cc2)nn(-c2cnn(C)c2)c1=O | > 300 | > 300 | > 300 | > 300 | > 300 | 117 | 119 | 115 | 98.6 | 128 | 110 | 117 | 108 | 121 | 121 | 122 | 118 | 116 | 116 | 105 | viability, T/C (second compound 0.1 µM, first compound 0.000949 µM): 115%; viability, T/C (second compound 0.1 µM, first compound 0.003 µM): 124%; viability, T/C (second compound 0.316 µM, first compound 0.000949 µM): 118%; viability, T/C (second compound 0.316 µM, first compound 0.003 µM): 114%; viability, T/C (second compound 1 µM, first compound 0.000949 µM): 112%; viability, T/C (second compound 1 µM, first compound 0.003 µM): 110%; viability, T/C (second compound 3.16 µM, first compound 0.000949 µM): 123%; viability, T/C (second compound 3.16 µM, first compound 0.003 µM): 122%; viability, T/C [16]: 112%; viability, T/C (second compound 10 µM, first compound 0.000949 µM): 113%; viability, T/C (second compound 10 µM, first compound 0.003 µM): 104%; viability, T/C [17]: 112%; viability, T/C [18]: 113%; viability, T/C [19]: 110%; viability, T/C [20]: 104%
